Consider five substances from patent US9474793B2, “Vaccines and methods for prevention and treatment of drug-resistant HIV-1 and hepatitis B virus” (The United States of America, as represented by the …, priority 2005, dated 2016).

Values joined by “and” are separate entries in the source; they are usually repeats but may differ in a detail not shown here. Identical values can stand only once. “Also recorded” adds a separate entry of the source. Like-named read-outs stand apart in the source and are kept apart here.

One data set deals with RT-WT specific CTL lines. As to the kind of experiment: Recognition of RT-variant peptides by RT-WT-specific CTL lines (FIG. 2). Particulars: E/T ratio 10:1.
Data set [1] is classed as physicochemical. The source says:
CTL peptides of the present invention, including the CTL peptide […] (SEQ ID NO:6; […]. The CTL peptide […] (SEQ ID NO:6; […]. The recommended storage of intact vials of the CTL peptide […] (SEQ ID NO:6; […].
Further, the CTL peptide […]

The format of data set [2] is physicochemical. Particulars: mixed with Montanide ISA-51 (300 μg dose). From the text:
When the CTL peptide […] (SEQ ID NO:6; […]

The subject of data set [3] is RT-WT peptide-pulsed C1R.AAD target cells. Kind of data set: 51Cr-release cytotoxicity assay: recognition of RT-WT by peptide-specific CTL lines from HHD-transgenic mice. Particulars: FIGS. 3-5; E/T ratio 10:1.
For data set [4] the following is noted: cited from earlier work.
The subject of a further data set is HIV. Particulars: patients infected with HIV; cited from earlier work.
Data set [5] concerns the target T1, HLA-A2.1 molecules (Homo sapiens, UniProt P04439, D140Y/D185E/D98H/E176V/E277Q/G131W/G231S/I119V/I121R/I166T/I218V/L300P/L318F/N151K/N90K/P208A/P217A/Q86G/Q94H/R138H/R169H/T345S). Type of data set: binding.
The target of data set [6] is T1, HLA-A2.1 molecules. The conditions noted are these: Okazaki et al. 2003; cited from earlier work.

On to “VIYQYMDDL (conserved HLA-A2-restricted cytotoxic T lymphocyte (CTL) epitope in human immunodeficiency virus 1 (HIV-1) drug-sensitive wild-type reverse transcriptase (RT-WT), residues 179-187)”, for which the “Recognition of the peptide by RT-WT-specific CTL” value in the data set with RT-WT specific CTL lines is on record as “recognized”.
As to VLYQYVDDV, the “freeze-thaw-freeze cycles through which the peptide is stable” value in data set [1] is listed as “at least two”. Also, in data set [1] (1.6 mg/ml, 4° C. and 22° C., by 7 days), the “degradation by HPLC” value is “No degradation”. The “loss by adsorption onto the borosilicate glass vial” value in data set [1] (at the concentrations to be used for vialing) is on record as “not significantly lost”. The storage stability is reported as 3 months in data set [1] (controlled room temperature (15° C.-30° C.)); “at least 18 months” in data set [1] (freezer (−10° C. to −25° C. and −70° C.)); “at least 9 months” in data set [1] (refrigerator (2° C.-8° C.)). Further, the “physical stability of the emulsion” value in data set [2] came to 3 h. In addition, the “Recognition of RT-WT by the peptide-specific CTL line” value in data set [3] is on record as “to some extent; also recorded: slightly weaker than that of RT-2L9V specific CTL”.
Consider “sargramostim: glycosylated, recombinant human sargramostim; position 23 arginine replaced with leucine, expressed in yeast”, for which the stability after reconstitution in data set [4] (250 μg vial reconstituted with bacteriostatic water for injection, refrigerator) is 20 days. Also, in data set [4] (500 μg/ml liquid), the “stability after initial entry into the vial” value is reported as “up to 20 days”. Moreover, in the data set on HIV, the “effect on viral load” value is “slight decrease”, the “impact on the CD4 count” value is “little impact” and the safety result was “safe”.
Consider YLYQYVDDV, for which the “FI0.5 (concentration required to give an FI of 0.5)” value at HLA-A2.1 molecules [5] was 0.245 µM and 0.176 to 0.245 µM.
With VLYQYMDDV [RT-2L9V], the “binding ability to HLA-A2 relative to RT-WT” value on HLA-A2.1 molecules [6] is “approximately 8 fold”. Moreover, the “Recognition of RT-WT by the peptide-specific CTL line” value in data set [3] is “most strongly among all four CTL types”.
